Source: PubChem BioAssay AID2060901 (Molecular Pharmacology Branch, DTP, NCI, 2025)
pIC50: −log10 of the molar value.

Tested on: 422866-222-R5-J1-PDC complex spheroids viability
Test: Anticancer human tumor 422866-222-R5-J1-PDC patient-derived pancreatic adenocarcinoma cell line growth inhibition [RAS]
Details: for pIC50: curve of first compound; for viability, T/C: stronger effect = lower value
Excerpt: RAS pathway inhibitors in Combinations in Complex Spheroids
A high-throughput screen of multi-cell type tumor spheroids was designed to identify active combinations of RAS pathway inhibitors and targeted small molecules. Complex spheroids include a stromal component modeled by human endothelial cells (HUVEC) and fibroblasts modeled by human mesenchymal stem cells (MSCs). The concentration ranges selected for each drug and investigational agent were based upon clinically achievable concentrations if the clinical Cmax of the agent was known.
Compounds. The drugs and investigational agents: abemaciclib (NSC768073), cobimetinib (NSC768068), divarasib (GDC6063, NSC841802), docetaxel (NSC628503), GDC-1971 (RLY-1971, NSC841576), gemcitabine (NSC613327), inavolisib (NSC800729), ipatasertib (NSC767898), KB-0742 (NSC834161), MRTX-1133 (NSC836407), osimertinib (NSC779217), RMC-4630 (NSC839698), RMC-6236 (NSC851965), RMC-6291 (NSC852671), Ro-3306 (NSC812927), sapanisertib (NSC764658), SN-38 (NSC673596), staurosporine (NSC755774), SY5609 (NSC837396), and tovorafenib (DAY101, NSC766906), were obtained from the National Cancer Institute (NCI) Developmental Therapeutics Program Chemical Repository. The FDA-approved anticancer drug set is available from the NCI Developmental Therapeutics Program. […] The stock solutions were prepared in dimethyl sulfoxide (DMSO, Sigma-Aldrich, St. Louis, MO, cat. D2650) at 800-fold the tested concentration and stored at -70 degrees C prior to their use. All drugs and investigational agents were tested over a range starting from a high concentration at or near the clinical Cmax and decreasing in half-log increments. If the clinical Cmax for an agent had not been determined, the highest concentration tested was 10 microM.
Cell Culture. All cells were maintained in an incubator at 37 degrees C and 5% CO2 with 95% humidity. The PDC lines were cultured according to standard operating procedures established by the NCI PDMR. All PDCs were thawed and cultured in Matrigel-coated flasks prepared with a working solution of 1X Ham's F-12 nutrient mix, without supplementation (Invitrogen, Waltham, MA, cat. 11765054), 100 U/mL penicillin-streptomycin (Invitrogen, cat. 15140122), and 2.5% Matrigel (Corning Inc., Corning, NY, cat. 354248) for the first three passages. The 362531-283-R-J2-PDC and 782815-120-R-J1-PDC lines were cultured in 6C/Colon 1B media, which includes advanced DMEM/F-12 (Thermo Fisher Scientific, cat. 12634028), 10 mM HEPES (Thermo Fisher Scientific, cat. 15630080), 1X GlutaMAX supplement (Thermo Fisher Scientific, cat. 35050061), 0.1 mg/mL primocin (InvivoGen, San Diego, CA, cat. ant-pm-2), 10% defined fetal bovine serum, heat inactivated (HyClone Laboratories Inc., Logan, UT, cat. SH30070.03HI), 50% L-WRN conditioned media (ATCC, cat. CRL-3276), 1.25 mM N-Acetyl-L-cysteine (Sigma-Aldrich, cat. A9165), 10 mM nicotinamide (Sigma-Aldrich, cat. N0636), 1X B-27 supplement (Thermo Fisher Scientific, cat. 17504044), 1X N-2 supplement (Thermo Fisher Scientific, cat. 17502048), 50 ng/mL human EGF (Thermo Fisher Scientific, cat. PHG0311), and 10 microM Y-27632 dihydrochloride (Tocris Bioscience, cat. 1254). The K12877-001-R-J1-PDC line was cultured in 6I media, which includes all 6C/Colon 1B media plus 10 ng/mL human FGF-10 (PeproTech, cat. 100-26), 1 ng/mL human FGF-2 (PeproTech, cat. 100-18B), 1 µM prostaglandin E2 (Tocris Bioscience, cat. 2296), […] hydrocortisone (Sigma-Aldrich, cat. H4001), and […] bovine insulin (Sigma-Aldrich, cat. I6634). The K86415-001-R-J1-PDC line was cultured in 6D media, which includes all 6C/Colon 1B media components minus the L-WRN conditioned media. The 485176-168-R4-J1-PDC was cultured in PANC media, which includes all 6C/Colon 1B media plus 100 ng/mL human FGF-10 (PeproTech, cat. 100-26), 500 nM SB-431542 (Selleckchem, cat. S1067), and 10 nM gastrin (Tocris Bioscience, cat. 3006). […]

[1] = second compound 0.0316 µM, first compound 0.0316 µM
[2] = second compound 0.0316 µM, first compound 0.1 µM
[3] = second compound 0.0316 µM, first compound 0.316 µM
[4] = second compound 0.0316 µM, first compound 1 µM
[5] = second compound 0.0316 µM, first compound 3.16 µM
[6] = second compound 0.0316 µM, first compound 10 µM
[7] = second compound 0.1 µM, first compound 0.0316 µM
[8] = second compound 0.1 µM, first compound 0.1 µM
[9] = second compound 0.1 µM, first compound 0.316 µM
[10] = second compound 0.1 µM, first compound 1 µM
[11] = second compound 0.1 µM, first compound 3.16 µM
[12] = second compound 0.1 µM, first compound 10 µM
[13] = second compound 0.316 µM, first compound 0.0316 µM
[14] = second compound 0.316 µM, first compound 0.1 µM
[15] = second compound 0.316 µM, first compound 0.316 µM
[16] = second compound 0.316 µM, first compound 1 µM
[17] = second compound 0.316 µM, first compound 3.16 µM
[18] = second compound 0.316 µM, first compound 10 µM
[19] = second compound 1 µM, first compound 0.0316 µM
[20] = second compound 1 µM, first compound 0.1 µM
[21] = second compound 1 µM, first compound 0.316 µM
[22] = second compound 1 µM, first compound 1 µM
[23] = second compound 1 µM, first compound 3.16 µM
[24] = second compound 1 µM, first compound 10 µM
[25] = second compound 3.16 µM, first compound 0.0316 µM
[26] = second compound 3.16 µM, first compound 0.1 µM
[27] = second compound 3.16 µM, first compound 0.316 µM
[28] = second compound 3.16 µM, first compound 1 µM
[29] = second compound 3.16 µM, first compound 3.16 µM
[30] = second compound 3.16 µM, first compound 10 µM
[31] = second compound 10 µM, first compound 0.0316 µM
[32] = second compound 10 µM, first compound 0.1 µM
[33] = second compound 10 µM, first compound 0.316 µM
[34] = second compound 10 µM, first compound 1 µM
[35] = second compound 10 µM, first compound 3.16 µM
[36] = second compound 10 µM, first compound 10 µM
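For viability, T/C in this document: 100% = DMSO vehicle control viability.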

Compound: CC1(O)CCCC1n1c(=O)c(C(F)F)cc2cnc(NC3CCN(S(C)(=O)=O)CC3)nc21 (stereo unspecified) + C#Cc1c(F)ccc2cc(O)cc(-c3ncc4c(N5CC6CCC(C5)N6)nc(OCC56CCCN5CC(F)C6)nc4c3F)c12
- pIC50 (second compound 0.0316 µM): 5.12
- pIC50 (second compound 0.1 µM): 5.07
- pIC50 (second compound 0.316 µM): < 5.00
- pIC50 (second compound 1 µM): > 7.50
- pIC50 (second compound 3.16 µM): > 7.50
- pIC50 (second compound 10 µM): > 7.50
- viability, T/C [1]: 73.3%
- viability, T/C [2]: 79.7%
- viability, T/C [3]: 87.4%
- viability, T/C [4]: 75.5%
- viability, T/C [5]: 69.4%
- viability, T/C [6]: 43.5%
- viability, T/C [7]: 85%
- viability, T/C [8]: 69.9%
- viability, T/C [9]: 72.5%
- viability, T/C [10]: 78.8%
- viability, T/C [11]: 73%
- viability, T/C [12]: 46%
- viability, T/C [13]: 67.3%
- viability, T/C [14]: 67.5%
- viability, T/C [15]: 64.5%
- viability, T/C [16]: 62.5%
- viability, T/C [17]: 72.6%
- viability, T/C [18]: 41.6%
- viability, T/C [19]: 55.4%
- viability, T/C [20]: 43.7%
- viability, T/C [21]: 42.2%
- viability, T/C [22]: 60.8%
- viability, T/C [23]: 70.4%
- viability, T/C [24]: 43.3%
- viability, T/C [25]: 29.6%
- viability, T/C [26]: 27.6%
- viability, T/C [27]: 31.6%
- viability, T/C [28]: 31.9%
- viability, T/C [29]: 42.2%
- viability, T/C [30]: 32.3%
- viability, T/C [31]: 21%
- viability, T/C [32]: 21.5%
- viability, T/C [33]: 25%
- viability, T/C [34]: 29.3%
- viability, T/C [35]: 42.1%
- viability, T/C [36]: 36.5%

Compound: CCN1CCN(Cc2ccc(Nc3ncc(F)c(-c4cc(F)c5nc(C)n(C(C)C)c5c4)n3)nc2)CC1 + C#Cc1c(F)ccc2cc(O)cc(-c3ncc4c(N5CC6CCC(C5)N6)nc(OCC56CCCN5CC(F)C6)nc4c3F)c12
- pIC50 (second compound 0.0316 µM): < 6.00
- pIC50 (second compound 0.1 µM): < 6.00
- pIC50 (second compound 0.316 µM): < 6.00
- pIC50 (second compound 1 µM): > 8.50
- pIC50 (second compound 3.16 µM): > 8.50
- pIC50 (second compound 10 µM): > 8.50
- viability, T/C (second compound 0.0316 µM, first compound 0.00316 µM): 79%
- viability, T/C (second compound 0.0316 µM, first compound 0.01 µM): 103%
- viability, T/C [1]: 88%
- viability, T/C [2]: 59.5%
- viability, T/C [3]: 69.3%
- viability, T/C [4]: 69.7%
- viability, T/C (second compound 0.1 µM, first compound 0.00316 µM): 87.2%
- viability, T/C (second compound 0.1 µM, first compound 0.01 µM): 86.3%
- viability, T/C [7]: 65.3%
- viability, T/C [8]: 62.4%
- viability, T/C [9]: 59%
- viability, T/C [10]: 77.4%
- viability, T/C (second compound 0.316 µM, first compound 0.00316 µM): 73.3%
- viability, T/C (second compound 0.316 µM, first compound 0.01 µM): 66.4%
- viability, T/C [13]: 63.3%
- viability, T/C [14]: 55%
- viability, T/C [15]: 48.5%
- viability, T/C [16]: 73.1%
- viability, T/C (second compound 1 µM, first compound 0.00316 µM): 48.3%
- viability, T/C (second compound 1 µM, first compound 0.01 µM): 51.5%
- viability, T/C [19]: 43%
- viability, T/C [20]: 33.5%
- viability, T/C [21]: 35.4%
- viability, T/C [22]: 55.8%
- viability, T/C (second compound 3.16 µM, first compound 0.00316 µM): 28.2%
- viability, T/C (second compound 3.16 µM, first compound 0.01 µM): 32%
- viability, T/C [25]: 27.7%
- viability, T/C [26]: 28%
- viability, T/C [27]: 35.2%
- viability, T/C [28]: 42.1%
- viability, T/C (second compound 10 µM, first compound 0.00316 µM): 23.2%
- viability, T/C (second compound 10 µM, first compound 0.01 µM): 22.8%
- viability, T/C [31]: 21.9%
- viability, T/C [32]: 19.4%
- viability, T/C [33]: 25.7%
- viability, T/C [34]: 35.2%

Compound: C[C@@H](NC(=O)c1ncnc(N)c1Cl)c1ncc(C(=O)Nc2cc(C(F)(F)F)c(Cl)cn2)s1 + C#Cc1c(F)ccc2cc(O)cc(-c3ncc4c(N5CC6CCC(C5)N6)nc(OCC56CCCN5CC(F)C6)nc4c3F)c12
- pIC50 (second compound 0.0316 µM): < 5.00
- pIC50 (second compound 0.1 µM): < 5.00
- pIC50 (second compound 0.316 µM): < 5.00
- pIC50 (second compound 1 µM): > 7.50
- pIC50 (second compound 3.16 µM): > 7.50
- pIC50 (second compound 10 µM): > 7.50
- viability, T/C [1]: 108%
- viability, T/C [2]: 114%
- viability, T/C [3]: 106%
- viability, T/C [4]: 117%
- viability, T/C [5]: 89%
- viability, T/C [6]: 57%
- viability, T/C [7]: 103%
- viability, T/C [8]: 88.3%
- viability, T/C [9]: 89.2%
- viability, T/C [10]: 74%
- viability, T/C [11]: 85.3%
- viability, T/C [12]: 58.3%
- viability, T/C [13]: 68.8%
- viability, T/C [14]: 67%
- viability, T/C [15]: 72.2%
- viability, T/C [16]: 55%
- viability, T/C [17]: 72.8%
- viability, T/C [18]: 48.1%
- viability, T/C [19]: 43%
- viability, T/C [20]: 44.5%
- viability, T/C [21]: 45.4%
- viability, T/C [22]: 39.7%
- viability, T/C [23]: 49.6%
- viability, T/C [24]: 46.7%
- viability, T/C [25]: 29%
- viability, T/C [26]: 28.4%
- viability, T/C [27]: 40.1%
- viability, T/C [28]: 28.3%
- viability, T/C [29]: 33.1%
- viability, T/C [30]: 27.9%
- viability, T/C [31]: 24.3%
- viability, T/C [32]: 22.6%
- viability, T/C [33]: 24.8%
- viability, T/C [34]: 24.4%
- viability, T/C [35]: 23.9%
- viability, T/C [36]: 24.5%
